Measurements taken from publication PMC6104039 (Nature Communications, 2018).
Entries after “also recorded” stand apart in the source; their conditions may differ.

Tests used:
murine CerS1 = target: T1, murine CerS1 (Mus musculus, UniProt P27545); assay: Ceramide synthase assay, NBD-dihydrosphingosine, C18:0-CoA; COS cells expressing murine CerS1; format: biochemical; settings: inhibitor range 10 nM–100 μM; read-out: IC50 mCerS1
T1 construct: expressed in transfected cells; host or cells: COS cells (lentiviral infection)
Procedure: Ceramide synthase assays were carried out using an HPLC-based assay with a fluorescent NBD-dihydrosphingosine substrate. All cell lines used for these assays were originally sourced from ATCC. […] Human CerS expression plasmids (pCMV6 plasmids from Origene) were transfected using FuGene-6 transfection reagent, and cells were harvested 24 h after transfection in 20 mM Hepes pH 7.4, 10 mM KCl, 1 mM dithiothreitol, 3 mM β-glycerophosphate, and EDTA-free complete protease inhibitor cocktail (Roche). Cells were sonicated in a Diagenode Bioruptor sonicating bath for 5 min, after which cell extracts were cleared by centrifugation at 800 × g for 10 min. Protein concentration in the supernatant was assayed using the bicinchoninic acid (BCA) assay, and the supernatant stored at −80 °C. COS cells were infected with lentiviral constructs expressing murine CerS1, 2, or 5, then homogenised as described above.
The reaction buffer consisted of 20 mM Hepes pH 7.4, 25 mM KCl, 2 mM MgCl2, 0.5 mM dithiothreitol, 0.1% fatty acid free BSA, 10 μM NBD-dihydrosphingosine and 50 μM fatty acid free BSA. […] The reaction mixture was transferred to a glass HPLC vial with 300 μL fused glass insert (Thermo Fisher Scientific) and NBD-dihydroceramide reaction products were analysed on a Thermo Scientific Surveyor HPLC connected to a Shimadzu RF-10AXL fluorescent detector (set to gain of 3). […]

[1] = P053 accumulation in tissues, LC-MS/MS; format: in vivo, mice; settings: 5 mg/kg daily for 2 weeks
HEK293 cells = assay: Detection of the phosphate of the compound in cultured cells, LC-MS/MS; format: in vitro ADME; settings: 1 µM, 2 h
Procedure: LC-MS/MS was performed on a TSQ Quantum Access triple quadrupole mass spectrometer in positive ion mode, coupled to an Accela UPLC system (Thermo Scientific). Extracts (20 μL) were separated on a 2 × 100 mm Eclipse XDB-C8 column with 1.8 μm particle size (Agilent Technologies), using a 7.5 min binary HPLC gradient: 0 min, 70% B ([…]); 1.5 min, 70% B; 3.5 min, 95% B; 4 min, 95% B; 4.5 min, 70% B; 7.5 min 70% B. Mobile phase A: 2 mM ammonium formate/1% formic acid in water; mobile phase B: 1 mM ammonium formate/1% formic acid in methanol. The flow rate was 0.4 mL min^−1, increasing to 0.5 mL min^−1 from 5–7 min, and column oven 30 °C. […] Visualisation and quantification of peaks was performed using Thermo Fisher’s XCalibur software v2.2.
Supplementary Figure 8. P053 is not phosphorylated in situ or in vivo. (a-b) HEK293 cells […]
LC-MS/MS analysis. Chromatograms for (a) FTY720 and its phosphate, and (b) P053 and its putative phosphate are shown. […]
mg/kg/day for 6 weeks, corresponding to a plasma concentration of ~300 nM. No peak is […]
(1 picture or pasted object on this page, not shown here)

T1 sequence (P27545 whole entry): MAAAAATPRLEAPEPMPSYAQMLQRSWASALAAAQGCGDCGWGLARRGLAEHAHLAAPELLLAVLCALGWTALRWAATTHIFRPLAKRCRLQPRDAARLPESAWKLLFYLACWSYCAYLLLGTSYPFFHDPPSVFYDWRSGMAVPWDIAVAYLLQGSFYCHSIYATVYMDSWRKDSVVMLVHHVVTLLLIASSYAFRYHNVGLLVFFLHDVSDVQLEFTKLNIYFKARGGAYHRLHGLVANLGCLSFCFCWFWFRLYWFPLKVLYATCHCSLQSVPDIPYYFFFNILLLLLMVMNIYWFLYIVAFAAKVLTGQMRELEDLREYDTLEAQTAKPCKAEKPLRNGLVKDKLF

Row | Structure (SMILES) | IC50 (murine CerS1) [µM] | compound distribution in tissues [1] | levels of the compound in brain tissue compared to SkM [1] | uptake in the liver [1] | phosphate of the compound in cultured HEK293 cells (HEK293 cells)
1 | C[C@@](N)(CO)CCc1ccc(OCc2ccc(Cl)c(Cl)c2)cc1 [P053, (S)-2-amino-4-(4-(3,4-dichlorobenzyloxy)phenyl)-2-methylbutan-1-ol] | 0.46 ± 0.08 | higher in liver and kidney than in muscle and adipose tissue | three-fold lower | substantial uptake | only background signal; also recorded: not detected
2 | CCCCCCCCc1ccc(CCC(N)(CO)CO)cc1 [FTY720, reference compound] | 5.6 ± 0.05 | – | – | – | definitive peak; also recorded: clearly detected
